Measured values from ChEMBL document CHEMBL1201862, “PubChem BioAssay data set” (2004).
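These data come from cells grown in 96-well plates and exposed to compound for 48 hours at five concentrations. The concentration for 50% growth inhibition is given as GI50.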 The source made the active and inactive calls. Rule as the data show it: active = GI50 up to about 1.1 µM and inactive = higher.

What was measured:
Experiment in all cases: growth of human tumour cells (NCI), 48 h
786-0 = tested on: 786-0
A498 = tested on: A498
A549 = tested on: A549
ACHN = tested on: ACHN
BT-549 = tested on: BT-549
CAKI-1 = tested on: CAKI-1
CCRF-CEM = tested on: CCRF-CEM
COLO 205 = tested on: COLO 205
DU-145 = tested on: DU-145
EKVX = tested on: EKVX
HCC 2998 = tested on: HCC 2998
HCT-116 = tested on: HCT-116
HCT-15 = tested on: HCT-15
HOP-62 = tested on: HOP-62
HOP-92 = tested on: HOP-92
HT-29 = tested on: HT-29
Hs-578T = tested on: Hs-578T
IGROV-1 = tested on: IGROV-1
K562 = tested on: K562
KM12 = tested on: KM12
LOX IMVI = tested on: LOX IMVI
M14 = tested on: M14
MCF7 = tested on: MCF7
MDA-MB-231 = tested on: MDA-MB-231
MDA-MB-435 = tested on: MDA-MB-435
MDA-N = tested on: MDA-N
MOLT-4 = tested on: MOLT-4
Malme-3M = tested on: Malme-3M
NCI-H226 = tested on: NCI-H226
NCI-H23 = tested on: NCI-H23
NCI-H460 = tested on: NCI-H460
NCI-H522 = tested on: NCI-H522
NCI/ADR-RES = tested on: NCI/ADR-RES
OVCAR-3 = tested on: OVCAR-3
OVCAR-4 = tested on: OVCAR-4
OVCAR-5 = tested on: OVCAR-5
OVCAR-8 = tested on: OVCAR-8
PC-3 = tested on: PC-3
RPMI-8226 = tested on: RPMI-8226
RXF 393 = tested on: RXF 393
SF-268 = tested on: SF-268
SF-295 = tested on: SF-295
SK-MEL-28 = tested on: SK-MEL-28
SK-MEL-2 = tested on: SK-MEL-2
SK-MEL-5 = tested on: SK-MEL-5
SK-OV-3 = tested on: SK-OV-3
SN12C = tested on: SN12C
SNB-19 = tested on: SNB-19
SW-620 = tested on: SW-620
T47D = tested on: T47D
TK-10 = tested on: TK-10
U-251 = tested on: U-251
UACC-257 = tested on: UACC-257
UACC-62 = tested on: UACC-62
UO-31 = tested on: UO-31
HL-60 = tested on: HL-60
SNB-75 = tested on: SNB-75

Measured: GI50

CCc1ccc(CCN2CCCCC2)nc1
inactive: 786-0 > 100 µM | A498 > 100 µM | A549 > 100 µM | ACHN > 100 µM | BT-549 > 100 µM | CAKI-1 > 100 µM | CCRF-CEM > 100 µM | COLO 205 > 100 µM | DU-145 > 100 µM | EKVX > 100 µM | HCC 2998 > 100 µM | HCT-116 > 100 µM | HOP-62 > 100 µM | HOP-92 46.3 µM | HT-29 > 100 µM | Hs-578T 56.9 µM | IGROV-1 58.9 µM | K562 > 100 µM | KM12 > 100 µM | LOX IMVI > 100 µM | M14 > 100 µM | MCF7 > 100 µM | MDA-MB-231 > 100 µM | MDA-MB-435 > 100 µM | MDA-N > 100 µM | MOLT-4 > 100 µM | Malme-3M > 100 µM | NCI-H226 > 100 µM | NCI-H23 > 100 µM | NCI-H460 > 100 µM | NCI-H522 52.1 µM | NCI/ADR-RES > 100 µM | OVCAR-3 92.3 µM | OVCAR-4 > 100 µM | OVCAR-5 > 100 µM | OVCAR-8 > 100 µM | PC-3 > 100 µM | RPMI-8226 96.8 µM | RXF 393 > 100 µM | SF-268 > 100 µM | SF-295 > 100 µM | SK-MEL-28 > 100 µM | SK-MEL-2 > 100 µM | SK-MEL-5 > 100 µM | SK-OV-3 > 100 µM | SN12C > 100 µM | SNB-19 > 100 µM | SW-620 > 100 µM | T47D > 100 µM | TK-10 > 100 µM | U-251 > 100 µM | UACC-257 > 100 µM | UACC-62 > 100 µM | UO-31 > 100 µM
> 100 µM: HCT-15

COc1cc(NS(C)(=O)=O)ccc1Nc1cc(C)nc2ccc3[nH]ccc3c12
inactive: 786-0 > 100 µM | A498 > 100 µM | A549 > 100 µM | ACHN > 100 µM | BT-549 > 100 µM | CAKI-1 > 100 µM | COLO 205 > 100 µM | DU-145 > 100 µM | EKVX > 100 µM | HCT-116 > 100 µM | HL-60 > 100 µM | HOP-62 > 100 µM | HOP-92 > 100 µM | HT-29 > 100 µM | Hs-578T > 100 µM | IGROV-1 > 100 µM | K562 > 100 µM | KM12 > 100 µM | LOX IMVI > 100 µM | M14 > 100 µM | MCF7 > 100 µM | MDA-MB-231 > 100 µM | MDA-MB-435 > 100 µM | MDA-N > 100 µM | NCI-H226 > 100 µM | NCI-H23 > 100 µM | NCI-H460 > 100 µM | NCI-H522 8.69 µM | NCI/ADR-RES > 100 µM | OVCAR-3 > 100 µM | OVCAR-4 > 100 µM | OVCAR-5 > 100 µM | OVCAR-8 > 100 µM | PC-3 > 100 µM | RPMI-8226 > 100 µM | SF-268 > 100 µM | SF-295 > 100 µM | SK-MEL-28 > 100 µM | SK-MEL-2 > 100 µM | SK-MEL-5 > 100 µM | SN12C > 100 µM | SNB-19 > 100 µM | SW-620 > 100 µM | T47D > 100 µM | TK-10 > 100 µM | U-251 > 100 µM | UACC-257 > 100 µM | UACC-62 > 100 µM | UO-31 > 100 µM
> 100 µM: HCT-15

CC1(O)C2(c3ccccc3)CCC[N+]1(C)CC2 (stereo unspecified)
inactive: A498 > 100 µM | BT-549 > 100 µM | CAKI-1 > 100 µM | CCRF-CEM > 100 µM | COLO 205 > 100 µM | DU-145 > 100 µM | HCC 2998 > 100 µM | HCT-116 > 100 µM | HL-60 > 100 µM | HOP-62 > 100 µM | HOP-92 > 100 µM | HT-29 > 100 µM | Hs-578T > 100 µM | IGROV-1 > 100 µM | K562 > 100 µM | KM12 > 100 µM | LOX IMVI > 100 µM | M14 > 100 µM | MCF7 > 100 µM | MDA-MB-231 > 100 µM | MDA-MB-435 > 100 µM | MDA-N > 100 µM | MOLT-4 > 100 µM | Malme-3M > 100 µM | NCI-H226 > 100 µM | NCI-H23 > 100 µM | NCI-H460 > 100 µM | NCI/ADR-RES > 100 µM | OVCAR-3 > 100 µM | OVCAR-4 > 100 µM | OVCAR-5 > 100 µM | OVCAR-8 > 100 µM | PC-3 > 100 µM | RPMI-8226 > 100 µM | RXF 393 > 100 µM | SF-295 > 100 µM | SK-MEL-28 > 100 µM | SK-MEL-2 > 100 µM | SK-MEL-5 > 100 µM | SK-OV-3 > 100 µM | SN12C > 100 µM | SNB-19 > 100 µM | SNB-75 > 100 µM | SW-620 > 100 µM | T47D > 100 µM | TK-10 > 100 µM | U-251 > 100 µM | UACC-257 > 100 µM | UACC-62 > 100 µM | UO-31 > 100 µM
> 100 µM: HCT-15
